These results are taken from ChEMBL document CHEMBL1137775, “Structure-based design of a benzodiazepine scaffold yields a potent allosteric inhibitor of hepatitis C NS5B RNA polymerase” (J Med Chem, 2009).

The test system of test [1] is Hepatitis C virus. Briefly: Inhibition of HCV 1b con1 isolate recombinant NS5B Cdelta21 RNA dependent RNA polymerase-mediated primer-dependent transcription by SPA. Also noted: species or system Hepacivirus hominis.
Test [2] has as its system Hepatitis C virus. Briefly: Antiviral activity against HCV 1b having NS5B E1202G/T1280I/K1846 mutation infected in human hepatoma cells after 3 days by replicon luciferase assay. The class given is functional, organism-based, Hepacivirus hominis. Particulars: genotype 1b, 72 h. Background: Replicon systems follow genome replication, usually without infectious particles.

The test system of test [3] is Hepatitis C virus. Briefly: Binding affinity to HCV 1b con1 isolate recombinant NS5B Cdelta21 RNA dependent RNA polymerase overexpressed in Escherichia coli BL21(DE3) by surface plasmon resonance experiment. Details: species or system Hepacivirus hominis. Background: Surface plasmon resonance follows binding to a sensor surface in real time, without labels.

Usually IC50 stands for the concentration at which inhibition is half-maximal. One may read the EC50 as the concentration giving half of the maximal effect. A lower EC50 goes with a more potent agent. A word on the Kd: it is the equilibrium constant for the complex coming apart.

As to `Cc1cccc(C(=O)N2c3cccc(O)c3NC3=C(C2c2ccc(OCc4ccccc4)cc2F)S(=O)(=O)CC(C)(C)C3)n1` (racemic), the IC50 in the test on Hepatitis C virus [1] is 120 nM. In the test with Hepatitis C virus [2], this molecule registered an EC50 of 52 nM.
As to `Cc1cccc(C(=O)N2c3cccc(O)c3NC3=C([C@@H]2c2ccc(OCc4ccccc4)cc2F)S(=O)(=O)CC(C)(C)C3)n1`, the 50% inhibitory concentration (IC50) in the test on Hepatitis C virus [1] is 26 nM. Besides, a half-maximal response in the test on Hepatitis C virus [2] (EC50) required 29 nM.
With `Cc1cccc(C(=O)N2c3cccc(O)c3NC3=C([C@H]2c2ccc(OCc4ccccc4)cc2F)S(=O)(=O)CC(C)(C)C3)n1`, the IC50 with Hepatitis C virus [1] was determined as 6700 nM. Also, a half-maximal response in the test with Hepatitis C virus [2] (EC50) required 4800 nM.
Regarding `Cc1cccc(C(=O)N2c3cccc(O)c3NC3=C(C(=O)CC(C)(C)C3)[C@@H]2c2ccc(OCc3ccccc3)cc2F)n1`, the IC50 with Hepatitis C virus [1] is 74 nM. In the test on Hepatitis C virus [2], this molecule displayed an EC50 of 400 nM. In addition, in the test on Hepatitis C virus [3], the Kd was 15 nM.
With `CC(=O)N1c2cccc(O)c2NC2=C(C(=O)CC(C)(C)C2)[C@@H]1c1ccc(OCc2ccccc2)cc1Cl`, in the test with Hepatitis C virus [2], the EC50 is 1200 nM.
